# Reference: BindingDB's records for doi:10.1016/j.ejmech.2021.113775 (Laboratory For Marine Drugs and Bioproducts of Qingdao …, 2021)
# Target: Sphingosine 1-phosphate receptor 2 (Homo sapiens, UniProt O95136)
# Assay: Binding affinity to S1PR2 (unknown origin) assessed as dissociation constant measured for 60 secs by surface plasmon resonance assay
# Sequence of Sphingosine 1-phosphate receptor 2 (O95136 whole entry): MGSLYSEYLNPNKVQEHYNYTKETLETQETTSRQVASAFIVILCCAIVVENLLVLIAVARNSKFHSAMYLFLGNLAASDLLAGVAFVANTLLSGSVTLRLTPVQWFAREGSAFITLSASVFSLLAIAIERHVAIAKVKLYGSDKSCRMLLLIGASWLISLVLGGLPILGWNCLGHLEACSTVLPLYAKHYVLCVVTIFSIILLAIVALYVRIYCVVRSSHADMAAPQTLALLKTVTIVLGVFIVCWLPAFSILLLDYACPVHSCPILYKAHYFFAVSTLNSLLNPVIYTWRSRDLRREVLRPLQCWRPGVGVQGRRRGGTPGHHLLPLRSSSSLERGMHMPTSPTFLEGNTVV
row,SMILES,koff [s⁻¹]
1,Cc1nn(C)c2nc(NNC(=O)Nc3cc(Cl)nc(Cl)c3)cc(C(C)C)c12,0.161
2,CN(C)c1nc(NNC(=O)Nc2cc(Cl)nc(Cl)c2)nc2c1ccn2C,0.102
3,O=C(NNc1nc(N2CCOCC2)c2ccn(C3CC3)c2n1)Nc1cc(Cl)nc(Cl)c1,0.133
4,Cn1ccc2c(-c3ccccc3)nc(NNC(=O)Nc3cc(Cl)nc(Cl)c3)nc21,0.136
5,O=C(Nc1cc(Cl)nc(Cl)c1)Nc1cc2ccccn2n1,0.116
6,O=C(Nc1cc(Cl)nc(Cl)c1)Nc1cc2ccc(-c3ccccc3)cn2n1,0.201
7,COc1ccc(-c2ccc3cc(NC(=O)Nc4cc(Cl)nc(Cl)c4)nn3c2)cc1,0.112
8,O=C(NNc1nc(Nc2ccccc2)nc(N2CCCC2)n1)Nc1cc(Cl)nc(Cl)c1,0.133
9,CNc1cc(C)nc(NNC(=O)Nc2cc(Cl)nc(Cl)c2)n1,0.236
10,Cc1cc(NC(=O)Nc2cc(Cl)nc(Cl)c2)cc(C)n1,0.146
11,O=C(Nc1cc(Cl)cc(Cl)c1)Nc1cc(Cl)nc(Cl)c1,0.116
12,CN1CCN(C(=O)Nc2cc(Cl)nc(Cl)c2)CC1,0.106
13,Cc1cc(NC(=O)Nc2cc(Cl)nc(Cl)c2)n(C)n1,0.177
14,O=C(Nc1ccnc(Cl)c1)Nc1cc(Cl)nc(Cl)c1,0.201
15,COc1c(Cl)cc(NC(=O)Nc2cc(Cl)nc(Cl)c2)cc1Cl,0.312
16,O=C(Nc1cc(Cl)nc(Cl)c1)Nc1cc(Cl)nc(Cl)c1,0.697
17,COc1cc(NC(=O)Nc2cc(Cl)nc(Cl)c2)cc(Cl)n1,0.219
18,CCOc1cc(NC(=O)Nc2cc(Cl)nc(Cl)c2)cc(Cl)n1,0.102
19,CC(C)Oc1cc(NC(=O)Nc2cc(Cl)nc(Cl)c2)cc(Cl)n1,0.119
20,O=C(Nc1cc(Cl)nc(Cl)c1)Nc1cc(Cl)nc(OC2CCCC2)c1,0.179
